Laboratory results reported in US9981972B2, “N-hydroxy bicyclic hydantoin carbamates as tools for identification of serine hydrolase targets” (ABIDE THERAPEUTICS, INC., priority 2014, dated 2018).
Entries after “also recorded” stand apart in the source; their conditions may differ. Values belong to the compound of their own block, whether it stands above or below them.

Legend:
[1] = system: FP-sensitive SHs in the mouse brain membrane proteome; assay: Gel-based competitive ABPP in vitro, mouse brain membrane proteome, anti-targets; format: biochemical
How it was run: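 Mouse brain membrane proteome (1 mg/mL in DPBS) was treated with compound (0.1-100 μM) for 30 min at 37 °C, then labeled with FP-Rh (2 μM final, 30 min, 25 °C). Bands were resolved by SDS-PAGE and scanned in-gel, with inhibition taken from band optical density versus DMSO. Targets counted as active or anti-targets at ≥50% inhibition.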

[2] = system: other SHs (anti-targets) in mouse tissues; assay: Inhibition by gel-based competitive ABPP in vivo, other SHs; conditions: 4 h
Method: In this assay, test compounds were administered to mice. Mice were sacrificed, and their tissues harvested, homogenized, and the soluble fractions isolated, reacted with FP-Rh, and separated by SDS-PAGE as described above.
Protocol Summary: Purpose-bred 3-4 month old male C57BL6 laboratory mice were i.p. administered test compound (0.5-50 mg/kg in 18:1:1 saline:PEG-40-castor oil:EtOH vehicle solution, 10 μL/g mouse weight) or vehicle only. After 4 hours, mice were humanely sacrificed (anesthetized with isoflurane followed by cervical dislocation), and tissues (liver, kidney, brain) removed and snap frozen in liquid nitrogen before processing. Tissues were homogenized, and soluble proteome isolated by ultracentrifugation (100 k×g, 45 minutes) and protein concentration adjusted to 1 mg/mL in DPBS. An aliquot (50 μL) was reacted with FP-Rh (2 μM final concentration) for 30 minutes at 25° C. Reactions were quenched with 16 μL 4×SDS-PAGE loading buffer (reducing), separated by SDS-PAGE, and visualized by in-gel fluorescent scanning. The percentage activity remaining was determined by measuring the integrated optical density of test compound bands relative to vehicle bands. Note: Due to the overlapping nature of LYPLA1 and LYPLA2 bands, the proteins were quantified together.
The in vivo inhibitory activity of Compound 1 was assessed. For this experiment, mice were administered test compound (0.5-50 mg/kg, i.p.) or vehicle only. After four hours mice were sacrificed and their tissues removed, homogenized, and the soluble fractions isolated and labeled with FP-Rh followed by SDS-PAGE and fluorescent detection of FP-labeled SHs (see FIG. 3B).
(§1) Compound 26, Compound 34, and Compound 1 were administered across a dose range of 1-40 mg/kg to C57BL6 mice by intraperitoneal injection, and, after 4 hours, animals were sacrificed and tissues harvested for analysis by gel-based ABPP using the FP-Rh probe and the Compound 39 probe.

PPT1 = molecular target: T1, PPT1 (Mus musculus, UniProt O88531); assay: Inhibition by gel-based competitive ABPP in vivo (Compound 39 probe)
T1 construct: from tissue; host or cells: central and peripheral tissues (e.g. brain, testis) of C57BL6 mice
T1 sequence (O88531 28-306): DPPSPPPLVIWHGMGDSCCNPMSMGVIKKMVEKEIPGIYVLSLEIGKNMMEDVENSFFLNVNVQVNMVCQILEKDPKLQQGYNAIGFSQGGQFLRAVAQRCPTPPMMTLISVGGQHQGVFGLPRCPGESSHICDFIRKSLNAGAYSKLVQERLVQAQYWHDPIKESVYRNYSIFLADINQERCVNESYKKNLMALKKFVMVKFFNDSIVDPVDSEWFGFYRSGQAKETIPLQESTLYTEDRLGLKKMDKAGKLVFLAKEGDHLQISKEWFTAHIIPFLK
Method: as §1

mPPT1 (in vivo), % @ 10 mg/kg (testis) (PPT1; 10 mg/kg, testis, mouse): 100% @ 10 mg/kg | dose inhibiting PPT1 in vivo (PPT1; i.p., 4 h, Compound 39 probe): ≥ 10 mg/kg
SMILES: O=C(ON1C(=O)C2CN(C(=O)N3CCOCC3)CCN2C1=O)N1CCC(CCc2ccc(Cl)cc2)CC1 (centres unmarked) [Compound 1, 7-(morpholine-4-carbonyl)-1,3-dioxohexahydroimidazo[1,5-a]pyrazin-2(3H)-yl 4-(4-chloro-phenethyl)piperidine-1-carboxylate]
Anti-target(s) 1 μM ([1]; SHs with at least 50% inhibition at 1 μM compound): ABHD6 | Anti-target(s) 10 μM ([1]; SHs with at least 50% inhibition at 10 μM compound): FAAH,; also recorded: ABHD6 | Anti-target(s) 100 μM ([1]; SHs with at least 50% inhibition at 100 μM compound): FAAH,; also recorded: ABHD12,; also recorded: MAGL,; also recorded: ABHD6 | anti-target inhibition in vivo ([2]; 0.5-50 mg/kg i.p., any tissue, ABHD6 not visible): no significant anti-target inhibition | cross-reactivity with other SHs in vivo ([2]; 1-40 mg/kg i.p.): limited cross-reactivity with other SHs

mPPT1 (in vivo), % @ 5 mg/kg (testis) (PPT1; 5 mg/kg, testis, mouse): 100% @ 5 mg/kg | blockade of PPT1 in vivo (PPT1; 1-5 mg/kg i.p., 4 h, central and peripheral tissues): near-complete blockade
SMILES: COc1ccc(N2CCN(C(=O)ON3C(=O)C4CN(CC5CCN(Cc6ccccc6)CC5)CCN4C3=O)CC2)cc1 (centres unmarked) [Compound 26, 7-((1-benzylpiperidin-4-yl)methyl)-1,3-dioxohexahydroimidazo[1,5-a]pyrazin-2(3H)-yl 4-(4-methoxyphenyl)piperazine-1-carboxylate]
inhibition of other SHs in vivo ([2]; 1-40 mg/kg i.p., brain and testis, FP-Rh or Compound 39 probe): did not inhibit other SHs

SMILES: O=C(ON1C(=O)C2CN(Cc3ccc(Oc4ccccc4)cc3)CCN2C1=O)N1CCC(c2ccccc2)CC1 (centres unmarked) [Compound 38, 1,3-dioxo-7-(4-phenoxybenzyl)hexahydroimidazo[1,5-a]pyrazin-2(3H)-yl 4-phenylpiperidine-1-carboxylate]
concentration-dependent profiling, ABHD3 and ABHD4 ([1]; mouse brain membrane SHs, FIG. 7B): promising lead inhibitor for ABHD3 and ABHD4
